Experiments:
Test in all cases: relative viability (nuclei count vs DMSO), 5 days (fraction); higher = more cells survive
Irinotecan + Phenformin = compound: CCc1c2c(nc3ccc(OC(=O)N4CCC(N5CCCCC5)CC4)cc13)-c1cc3c(c(=O)n1C2)COC(=O)[C@]3(O)CC [Irinotecan] + N=C(N)NC(=N)NCCc1ccccc1 [Phenformin] (partner 250 µM)
Outline: (§1)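 Nuclei were stained with Hoechst during a one-step fixation (final 0.05% Triton X-100, 1% formaldehyde, 1 ug/ml Hoechst) carried out 5 days after dosing, then counted on 4× images. The cells, lung cancer lines in 1536-well plates, had been dosed by pin tool the day after seeding with one drug alone or a fixed anchor-drug dose plus five library-drug doses (not always all listed) in √10 steps. Relative viability is the nuclei count in treated wells divided by that in vehicle wells, and each value is the median of duplicate plates.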

RU-SKI 43 + OSI-027 = compound: CC[C@@H](C)CNCC(=O)N1CCC2=C([C@@H]1COC3=CC=CC(=C3)C)C=CS2 [RU-SKI 43] + COc1cccc2cc(-c3nc([C@H]4CC[C@H](C(=O)O)CC4)n4ncnc(N)c34)[nH]c12 [OSI-027] (partner 0.5 µM)
Outline: as §1

MK-8033 + Palbociclib = compound: Cn1cc(-c2cnc3ccc4ccc(CS(=O)(=O)NCc5ccccn5)cc4c(=O)c3c2)cn1 [MK-8033] + CC(=O)c1c(C)c2cnc(Nc3ccc(N4CCNCC4)cn3)nc2n(C2CCCC2)c1=O [Palbociclib] (partner 0.5 µM)
Outline: as §1

RU-SKI 43 + Tozasertib = compound: CC[C@@H](C)CNCC(=O)N1CCC2=C([C@@H]1COC3=CC=CC(=C3)C)C=CS2 [RU-SKI 43] + Cc1cc(Nc2cc(N3CCN(C)CC3)nc(Sc3ccc(NC(=O)C4CC4)cc3)n2)n[nH]1 [Tozasertib] (partner 0.1 µM)
Outline: as §1

Cell Line: UMC-11
- relative viability (Irinotecan + Phenformin; first compound 0.6325 µM): 0.294
- relative viability (Irinotecan + Phenformin; first compound 2 µM): 0.235
- relative viability (Irinotecan + Phenformin; first compound 6.325 µM): 0.196
- relative viability (Irinotecan + Phenformin; first compound 20 µM): 0.189
- relative viability (RU-SKI 43 + OSI-027; first compound 0.1 µM): 0.534
- relative viability (RU-SKI 43 + OSI-027; first compound 0.3162 µM): 0.631
- relative viability (RU-SKI 43 + OSI-027; first compound 1 µM): 0.492
- relative viability (RU-SKI 43 + OSI-027; first compound 3.162 µM): 0.5
- relative viability (RU-SKI 43 + OSI-027; first compound 10 µM): 0.463
- relative viability (MK-8033 + Palbociclib; first compound 0.02 µM): 0.329
- relative viability (MK-8033 + Palbociclib; first compound 0.06325 µM): 0.337
- relative viability (MK-8033 + Palbociclib; first compound 0.2 µM): 0.3
- relative viability (MK-8033 + Palbociclib; first compound 0.6325 µM): 0.35
- relative viability (MK-8033 + Palbociclib; first compound 2 µM): 0.343
- relative viability (RU-SKI 43 + Tozasertib; first compound 0.1 µM): 0.204
- relative viability (RU-SKI 43 + Tozasertib; first compound 0.3162 µM): 0.197
- relative viability (RU-SKI 43 + Tozasertib; first compound 1 µM): 0.19
- relative viability (RU-SKI 43 + Tozasertib; first compound 3.162 µM): 0.175
- relative viability (RU-SKI 43 + Tozasertib; first compound 10 µM): 0.18

Reference: the supplement of paper PMC10307832
